Experimental data from paper PMC7619385 (ACS infectious diseases, 2025).

What was measured:
NLuc::LmxCLK1 = NLuc::LmxCLK1 (Leishmania mexicana, UniProt E9AMP2); assay: In-cell BRET target engagement in intracellular amastigotes expressing NLuc::LmxCLK1; assay type: cell-based
Procedure: L. mexicana (strain MNYC/BZ/62/M379) promastigotes were cultivated in medium 199 (M199) (Earle’s Salts - Gibco) supplemented with 10% (v/v) heat-inactivated fetal calf serum (HIFCS – Cultilab) and 1% Penicillin/Streptomycin solution (Sigma-Aldrich) at 26 °C. Phenotypic drug response assays in null mutant and point-mutation mutant lines were performed in HOMEM supplemented with 10% (v/v) heat-inactivated fetal calf serum (HIFCS – Gibco). THP-1 monocytes were differentiated in adherent macrophages with 50 ng of PMA for 72 h at 37 °C and 5% CO2 before infection with stationary phase promastigotes (ratio 10 promastigotes:1 macrophage) for 6 h, followed by washing to remove non-internalized Leishmania. Infected macrophages were incubated at 34 °C and 5% CO2 for 48 h in RPMI (Gibco) supplemented with 10% HIFCS and 1% Penicillin/Streptomycin solution.
in vitro BRET used purified NLuc-LmxCLK1 in Kinase Buffer (50 mM HEPES, 1 mM EGTA, 10 mM MgCl^2, 2 mM DTT and 0.01% Tween-20) aliquoted into 96-well plates (Greiner #655904). In cell BRET assays used engineered L. mexicana (promastigotes or intramacrophage amastigotes) expressing NLuc-LmxCLK1 in cell media aliquoted into 96-well plates (Greiner, #655083). For tracer titration experiments, BRET probes were serially diluted from 100% DMSO stocks – first in 100% DMSO to 100x final assay concentration, and then in Tracer Dilution Buffer (TDB - 12.5 mM HEPES, pH 7.5; 31.25% PEG 400) to 20x the final assay concentration. Serially diluted probes (5 µL) were added to 85 µL of cells in culture media or 85 µL of purified protein. Final well volumes were adjusted to 100 µL with sterile Opti-MEM™ I Reduced Serum Medium (Thermo-Scientific) – for wells containing cells; or Kinase Buffer - for wells containing purified protein. For tracer displacement assays, samples were prepared as above, but final volume was brought to 100 µL by addition of vehicle or serially-diluted test compounds. Final DMSO concentration in these assays was 1%. Plates were incubated for 30 min at 25 °C (purified protein and promastigotes) or 34 °C (intramacrophage amastigotes), and 50 µL of Promega cocktail containing furimazine and NLuc extracellular inhibitor (catalog #N2161) were added to each well. Light emissions at 460+10 nm (BRET donor) and at 610+20 nm (BRET acceptor) were sequentially recorded (integration time = 0.5 s, gain = 3600) using a luminometer (BMG LABTECH Clariostar or Biotek Synergy HT). BRET values are reported in milli-BRET (mBRET) units (mBU), obtained by dividing the acceptor luminescence by the donor luminescence and multiplying the result by a factor of 1,000. BRET values were converted to blank-corrected probe occupancies (%) according to equation [1]: (1) Probeoccupancy(%)=X−Z/Y−Z×100 where X = mBRET value in the presence of the test compound and the probe, Y = mBRET value in the presence of probe only, and Z = mBRET value in the absence of probe and test compound.

LmxCLK1 = target: T1, LmxCLK1 (Leishmania mexicana, UniProt E9AMP2); assay: Intact mass LC-MS for covalent adduct formation; assay type: binding; details: 2 h incubation at room temperature, inhibitor:protein 3:1
T1 sequence (E9AMP2 1-422): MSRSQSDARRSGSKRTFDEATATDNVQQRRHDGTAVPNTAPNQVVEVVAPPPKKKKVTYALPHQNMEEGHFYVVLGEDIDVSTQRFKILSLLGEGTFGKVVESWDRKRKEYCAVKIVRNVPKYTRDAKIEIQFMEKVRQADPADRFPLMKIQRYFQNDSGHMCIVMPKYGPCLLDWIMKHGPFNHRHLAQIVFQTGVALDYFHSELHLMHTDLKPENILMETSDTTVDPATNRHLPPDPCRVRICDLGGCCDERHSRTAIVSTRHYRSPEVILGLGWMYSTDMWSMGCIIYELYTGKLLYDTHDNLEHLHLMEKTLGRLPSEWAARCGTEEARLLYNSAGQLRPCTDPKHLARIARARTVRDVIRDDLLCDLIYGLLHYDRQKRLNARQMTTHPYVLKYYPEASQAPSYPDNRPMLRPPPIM
Procedure: Samples were analyzed by LC-ESI-MS in a XEVO G2 Sx Q-ToF (Waters) at LACTAD-UNICAMP, Brazil. […]
where background is the background fluorescence obtained in the absence of enzyme (blank).
To determine IC50 values, the background-corrected HTRF ratio was plotted as a function of test compound concentration, and the data were fitted to the sigmoidal dose-response (variable slope) equation [2] available in GraphPad Prism (v. 9.1.0):
Signal ratio (665/620) = Plateau + Plateau)(* − Plateau’())($ [2] […]
where Hill = Hill slope describing the steepness of the curve and x = test compound concentration.
To obtain normalized enzymatic activity we used the background corrected HTRF ratio of enzymatic […]
and 0% enzyme activity, respectively.
To establish the contribution of compound pre-incubation to the IC50 assay, we pre-incubated WZ8040 with LmxCLK1 for 5, 10, 15 and 30 minutes at room temperature, prior to starting the phosphorylation reaction by adding ATP and the peptide substrate. The enzymatic reactions were carried following the procedures described above.
For fitting of kinact and KI values from endpoint pre-incubation IC50 data, we used the equation [3], first described by Krippendorff and colleagues:7 […]
IC"&(t) = k. […]
(CQMED clone ID LmxCLK1-cb001) and the two covalent inhibitors WZ8040 and WZ3146. […] Samples were analyzed by LC-ESI-MS in a XEVO G2 Sx Q-ToF (Waters) at LACTAD-UNICAMP, Brazil. […]

SMILES	IC50 (NLuc::LmxCLK1) [µM]	Lower potency in intracellular amastigotes (NLuc::LmxCLK1; tracer displacement, versus promastigotes)	Covalent adduct formation with purified LmxCLK1 (LmxCLK1)
Cc1ccc(C(=O)Nc2ccc(CN3CCN(C)CC3)c(C(F)(F)F)c2)cc1C#Cc1cnc2[nH]ncc2c1 [GZD824]	13	~ 3 fold	–
C=CC(=O)Nc1cccc(Oc2nc(Nc3ccc(N4CCN(C)CC4)cc3)ncc2Cl)c1 [WZ3146]	–	–	formation of covalent adducts
C=CC(=O)Nc1cccc(Sc2nc(Nc3ccc(N4CCN(C)CC4)cc3)ncc2Cl)c1 [WZ8040]	7	–	formation of covalent adducts
